# Literature values, collected in paper PMC9587990, “Molecular basis for isoform-selective inhibition of presenilin-1 by MRK-560” (Nature Communications, 2022).
# Test system: PS1-complex over PS2
# Conditions: cited from earlier work
row,SMILES,reported isoform selectivity
1,O=C1NCCCCC1N(Cc1ccc(Br)cc1)S(=O)(=O)c1ccc(Cl)cc1 (centres unmarked) [ELN318463],PS1 selectivity
2,C[C@H](c1ccc(F)cc1CCCC(=O)O)N(c1cc(F)ccc1F)S(=O)(=O)c1ccc(Cl)cc1 [BMS299897],PS1 selectivity
